This is an account of results in patent publication US7364882B1, “Enzymatic reduction of a nitrile containing compound to the corresponding amine” (State of Oregon Acting by and Through the State Board of …, priority 2004, dated 2008).

What all share (format): biochemical
Data set [1] concerns QueF. Put plainly: QueF nitrile oxido-reductase assay, continuous UV monitoring of NADPH oxidation (preQ0 to preQ1). How it is done: PreQ0 oxido-reductase activity was determined using a number of redox cofactors, and activity was observed only in the presence of NADPH. […] […] Assays were run from 30 seconds to 2 hours.
To confirm that preQ1 was the reduced product as predicted, reaction assays were analyzed by reverse-phase HPLC (Bondclone 10 C-18, 300×3.9 mm) with a mobile phase of 20 mM ammonium actetate (pH 6.0) and methanol. With a flow-rate of 1 mL/min a series of linear gradients were developed from 20 mM ammonium acetate (pH 6.0) (buffer U) to 75% methanol in buffer U (buffer V) in the following manner (beginning time and ending time and linear increase to % V): 0-20.0 min, 0% V; 20.0-30.0 min, 8% V; 30.0-40.0 min, 20% V; 40.0-42.0 min, 100% V; 42.0-50.0 min, 100% V; and 50.0.0-52.0 min, 0% V. PreQ0 and preQ1 were detected with a diode array detector.

Data set [2] is described as follows: standard nitrile oxido-reductase assay of B. subtilis QueF mutants. The note with it: Glu98 substitution in SEQ ID NO: 2.
Protocol: Assays were typically carried out at 30° C. in a final volume of 80 μL in a solution of 50 mM HEPES (pH 7.5), 50 mM KCl, 1 mM DTT, 2-150 μM NADPH, 0.2-150 μM preQ0, and 10-1000 nM QueF. Assays were run from 30 seconds to 2 hours.
Data set [3] can be described thus: GTP cyclohydrolase activity assays (radiochemical [14C]formic acid release, fluorescence, HPLC). The note with it: three assays, large screen of conditions (cyclohydrolase I, II, III). An excerpt:
GTP cyclohydrolase activity was investigated using three different assays (radiochemical based release of [^14C]formic acid, fluorescence, or HPLC analysis of reactions) and a large screen of assay conditions (including those for cyclohydrolase I, II, and III activity).

Residue numbers refer to the chain shown, from its start. In names and notes the source's numbering stands. Like-named read-outs stand apart in the source and are kept apart here. Some results are limits rather than exact numbers.

One may read the Km as the substrate concentration at which the rate is half of its maximum. As usually defined, the kcat is the number of substrate molecules converted per active site and unit of time at saturation. For `N#Cc1c[nH]c2nc(N)[nH]c(=O)c12` [preQ0, 7-cyano-7-deazaguanine], the Michaelis constant (Km) in data set [1] (read-out: KM for preQ0) was less than 1 µM. Also, in data set [1] (variable NADPH and constant, saturating preQ0), the turnover number (kcat) was 0.01 s⁻¹. For the molecule `NCC1C=Nc2nc(N)[nH]c(=O)c21` (stereo not shown) [preQ1, 7-aminomethyl-7-deazaguanine], in data set [1] (reverse reaction with preQ1 and NADP+), the “preQ0 generated when the reaction was run in reverse” value is on record as less than 1%.

As to “reduced form of nicotinamide adenine dinucleotide phosphate [NADPH]”, the Michaelis constant (Km) in data set [1] (variable NADPH and constant, saturating preQ0, read-out: KM for NADPH) is 36 µM.

B1: E98M: QueF with substitution of Glu98 in SEQ ID NO: 2 to Met (protein)
chain: MTTRKESELEGVTLLGNQGTNYLFEYAPDVLESFPNKHVNRDYFVKFNCPEFTSLCPKTGQPDFATIYISYIPDEKMVESKSLKLYLFSFRNHGDFHMDCMNIIMNDLIELMDPRYIEVWGKFTPRGGISIDPYTNYGKPGTKYEKMAEYRMMNHDLYPETIDNR
With B1, the “ability to reduce PreQ0” value in data set [2] is “significantly decreased”.

B2: YkvM: B. subtilis QueF Class I protein, SEQ ID NO: 2 (protein)
chain: B1 chain with M98E
For B2, the GTP cyclohydrolase activity result in data set [3] is “no GTP cyclohydrolase activity was detected”.

B3: YqcD: E. coli QueF Class II protein, SEQ ID NO: 4 (protein)
chain: MSSYANHQALAGLTLGKSTDYRDTYDASLLQGVPRSLNRDPLGLKADNLPFHGTDIWTLYELSWLNAKGLPQVAVGHVELDYTSVNLIESKSFKLYLNSFNQTRFNNWDEVRQTLERDLSTCAQGKISVALYRLDELEGQPIGHFNGTCIDDQDITIDNYEFTTDYLENATCGEKVVEETLVSHLLKSNCLITHQPDWGSLQIQYRGRQIDREKLLRYLVSFRHHNEFHEQCVERIFNDLLRFCQPEKLSVYARYTRRGGLDINPWRSNSDFVPSTTRLVRQ
B3: in data set [3], the GTP cyclohydrolase activity entry is given as “no GTP cyclohydrolase activity was detected”.
